Source: US11298361B2, “Fused benzazepines for treatment of Tourette's Syndrome” (EMALEX BIOSCIENCES, INC., priority 2012, dated 2022)
Read-outs that look alike come from different tables or passages of the source.

Assays:
[1] = molecular target: D1/D5 receptor (^3H-23390); conditions: radioligand ^3H-23390; cited from earlier work
CAR = conditions: cited from earlier work
D2 receptor (^3H-Spip) = D2 receptor (^3H-Spip) (Homo sapiens, UniProt P14416)
[2] = molecular target: dopamine D1 receptors in human brain (Homo sapiens, UniProt P21728); conditions: radiolabeled ecopipam, healthy volunteers; cited from earlier work
dopamine D1 receptors in human brain, sequence (P21728 whole entry): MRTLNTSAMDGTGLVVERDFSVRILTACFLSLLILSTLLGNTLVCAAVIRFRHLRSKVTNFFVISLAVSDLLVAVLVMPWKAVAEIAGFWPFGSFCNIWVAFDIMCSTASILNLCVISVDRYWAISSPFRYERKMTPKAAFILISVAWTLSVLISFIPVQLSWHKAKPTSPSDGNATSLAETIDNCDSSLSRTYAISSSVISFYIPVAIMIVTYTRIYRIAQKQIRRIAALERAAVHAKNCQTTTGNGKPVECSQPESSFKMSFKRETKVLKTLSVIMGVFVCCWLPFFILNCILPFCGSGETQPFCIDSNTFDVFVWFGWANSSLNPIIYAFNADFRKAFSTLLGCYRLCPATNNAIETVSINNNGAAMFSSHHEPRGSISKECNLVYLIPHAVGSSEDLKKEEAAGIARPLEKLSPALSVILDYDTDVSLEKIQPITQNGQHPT

hD1/hD5 receptors = assay: Binding to cloned human receptors
Protocol: (§1) Activation of D1 receptors by dopamine and similar agonists stimulates the production of cyclic AMP (cAMP) via activation of adenylate cyclase. […] To ensure that there was no species specificity to the receptor binding profile, ecopipam's potency and selectivity were evaluated using cloned human receptors. […] Positron emission tomography (PET) studies using radiolabeled ecopipam have been conducted in healthy volunteers (Karlsson et al., Psychopharmacol. 121:300-308, 1995).

D1/D5 receptors = conditions: rat brain homogenates, low concentrations; cited from earlier work
D1 receptor = conditions: rats, D1-agonist discriminative stimulus; cited from earlier work
[3] = system: adult patients with Tourette's Syndrome; assay: Open-label clinical study in adult patients with Tourette's Syndrome; format: in vivo, human
Protocol: A clinical program was carried out to test the safety, tolerability, and activity of ecopipam in adult patients with Tourette's Syndrome. A multicenter, open-label, nonrandomized study in 25 to 30 subjects was conducted to assess the activity and safety of ecopipam in subjects with TS. […] Assessment was performed at each visit. A follow-up visit was conducted via telephone at Week 10 to record any adverse events. Ecopipam was administered daily before bedtime at 50 mg/day for Week 1 and Week 2 and at 100 mg/day for Weeks 3-8. This treatment regimen is within the scope of the present invention; the compositions and various formulations described herein can be administered as described in this Example. The activity of ecopipam was measured using the following clinical rating scales: (1) Yale Global Tic Severity Scale (YGTSS; data based on this scoring system are presented below); (2) ADHD self-report symptom checklist (ASRS); (3)Yale-Brown Obsessive Compulsive Scale (YBOCS); (4) Premonitory Urge for […]; and (6) Clinical Global Impression Improvement and Severity Scales (CGI). The demographics of the study population were as follows: eighty three percent of the subjects were male (15 out of 18); fifteen were Caucasian, two were African-American, and one was an Asian/Pacific Islander. […] Four patients reported AEs that were rated as severe and included the following: sedation, insomnia, decreased appetite, hypersensitivity, cold sweat, and feeling jittery. The following AEs were rated mild to moderate and were reported in more than three subjects: fatigue, insomnia, nausea, sedation, headache, restlessness, anxiety, muscle twitching, dysphoria, and sleeplessness. These side effects are similar to those seen in other studies with ecopipam and were not unexpected.

[4] = system: adenosine, benzodiazepine, glutamate/AMPA/kainate, GABA, muscarinic, nicotinic, opiate, alpha- or beta-adrenergic sites; assay: Binding at other receptor sites
D1 receptors = assay: In vitro studies on cAMP second messenger (adenylate cyclase); format: biochemical
Protocol: as §1

[5] = radioligand ^3H-Spip; read-out: Ki (nM) ^3H-Spip; cited from earlier work

D2 receptor (^3H-Spip), sequence (P14416 whole entry): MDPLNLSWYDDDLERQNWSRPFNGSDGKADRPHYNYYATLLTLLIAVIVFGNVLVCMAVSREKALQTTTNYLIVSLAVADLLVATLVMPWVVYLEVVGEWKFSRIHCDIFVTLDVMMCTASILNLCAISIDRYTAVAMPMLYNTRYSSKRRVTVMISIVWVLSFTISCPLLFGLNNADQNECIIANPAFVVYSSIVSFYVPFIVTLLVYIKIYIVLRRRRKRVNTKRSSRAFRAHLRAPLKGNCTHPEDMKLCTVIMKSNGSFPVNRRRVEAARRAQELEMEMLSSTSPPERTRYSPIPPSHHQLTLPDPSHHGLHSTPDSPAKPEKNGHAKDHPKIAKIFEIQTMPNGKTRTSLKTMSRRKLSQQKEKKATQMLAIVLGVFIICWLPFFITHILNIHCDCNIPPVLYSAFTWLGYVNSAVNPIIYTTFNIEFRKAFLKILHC

In the case of Cc1cc2c(cc1O)C1c3ccccc3CCC1N(C)CC2 (stereo not drawn) [Q=CH2, n=1, trans, X=CH3, Y=OH], the Ki [1] is given as 119 nM.
For CN1CCc2cc(Cl)c(O)cc2C2c3ccccc3CCC21 (stereo not drawn) [Q=CH2, n=1, trans, X=Cl, Y=OH], the CAR (MED), po (CAR) is given as 30 mg/kg and the “CAR (MED), sc” value (CAR; in mg/kg (unit assumed)) is given as 0.3.
For CN1CCc2cc(Cl)c(O)cc2C2c3ccccc3CC21 (stereo not drawn) [Q=CH2, n=0, trans, X=Cl, Y=OH], the Ki [1] is listed as 10 nM.
In the case of CN1CCc2cc(Cl)c(O)cc2[C@@H]2c3ccccc3CC[C@H]21 [Q=CH2, n=1, 7b(S):7a(R)(+), X=Cl, Y=OH], the “CAR (MED), po” value (CAR) is given as >30 (po).
For COc1cc2c(cc1O)C1c3ccccc3CCCC1N(C)CC2 (stereo not drawn) [Q=CH2, n=2, trans, X=CH3O, Y=OH], the “CAR (MED), sc” value (CAR) is given as 10 (sc), the Ki [1] is given as 292 nM and the Ki (D2 receptor (^3H-Spip); [5]) is given as > 100000 nM.
For COc1cc2c(cc1O)CCN(C)C1CCCc3ccccc3C21 (stereo not drawn) [Q=CH2, n=2, trans, X=HO, Y=CH3O], the “CAR (MED), sc” value (CAR) is given as 10 (sc), the Ki [1] is given as 7730 nM and the Ki (D2 receptor (^3H-Spip); [5]) is given as > 100000 nM.
For COc1cc2c(cc1O)C1c3ccccc3CCC1N(C)CC2 (stereo not drawn) [Q=CH2, n=1, trans, X=CH3O, Y=OH], the CAR (MED), po (CAR) is given as 30 mg/kg, the “CAR (MED), sc” value (CAR; in mg/kg (unit assumed)) is given as 0.3-1 and the Ki [1] is given as 23 nM.
For CN1CCc2cc(Cl)c(N)cc2C2c3ccccc3CCC21 (stereo not drawn) [Q=CH2, n=1, trans, X=Cl, Y=NH2], the “CAR (MED), po” value (CAR) is given as 3 (po) and the Ki [1] is given as 70 nM.
For CN1CCc2cc(Cl)c(O)cc2[C@H]2c3ccccc3CC[C@@H]21 [ecopipam, (−)-trans-6,7,7a,8,9,13b-hexahydro-3-chloro-2-hydroxy-N-methyl-5H-benzo [d]-naphtho-[2,1-b]azepine], the “PET binding in the human brain” value [2] is listed as “specific binding in the human brain”, the “Affinity for hD1/hD5 receptors” value (hD1/hD5 receptors) is listed as “high affinity” and the “Affinity for D1/D5 receptors” value (D1/D5 receptors) is listed as “high affinity”. For the same compound, the “Action on dopamine-agonist-induced behaviors” value (D1 receptor) was “selective D1 antagonist”, the “Patients with at least one grade change in CGI-S score” value ([3]; 9 of the 15 patients, p≤0.01 Student's t test) was 60% and the “Subjects reporting adverse events” value ([3]; 18 subjects) was “All subjects reported at least one adverse event”. The “Change in YGTSS scores, intent to treat analysis” value ([3]; entire population n=18) was “statistically significant changes were evident”, the “Change in YGTSS scores (motor, phonic, total severity), baseline to last visit” value ([3]; fifteen patients who completed the trial, 50 mg/day Weeks 1-2, 100 mg/day Weeks 3-8) was “highly statistically significant (Paired t-Test p<0.001) reduction” and the “Changes in lab tests” value ([3]; human, in vivo) was “none were of clinical significance”. For the same compound, the “Changes in vital signs” value ([3]; human, in vivo) was “no clinically significant changes in vital signs”, the Serious adverse events ([3]; requiring medical intervention) was “no serious adverse events” and the “Patients reporting AEs rated as severe” value ([3]; sedation, insomnia, decreased appetite, hypersensitivity, cold sweat, feeling jittery) was “Four”. For the same compound, the “Concentration multiple at which it did not bind to other sites” value [4] was > 700 fold and the “Functional action on cAMP second messenger” value (D1 receptors) was “antagonist”.
For CN1CCc2cc(Cl)c(O)cc2[C@H]2c3ccccc3CC[C@@H]21 [Q=CH2, n=1, 7b(R):7a(S)(−), X=Cl, Y=OH], the “CAR (MED), po” value (CAR) is listed as 30 (po).
For CN1CCc2ccc(O)cc2C2c3ccccc3OCC21 (stereo not drawn) [Q=O, n=1, trans, X=H, Y=OH], the Ki [1] is given as 121 nM.
In the case of COc1cc2c(cc1O)C1c3ccccc3CCC1N(C)CC2 (stereo not drawn) [Q=CH2, n=1, cis, X=CH3O, Y=OH], the Ki [1] is listed as 6450 nM and the Ki (D2 receptor (^3H-Spip); read-out: Ki (nM) ^3H-Spip; radioligand ^3H-Spip; cited from earlier work) is listed as > 100000 nM.
In the case of CN1CCc2ccc(O)cc2C2c3ccccc3CCC21 (stereo not drawn) [Q=CH2, n=1, trans, X=H, Y=OH], the Ki [1] is listed as 80 nM.
